Test results reported in US8604070B2, “Use of inhibitors of the renin-angiotensin system” (FinVector Vision Therapies, Ltd., priority 1997, dated 2013).
Entries after “also recorded” stand apart in the source; their conditions may differ.

What was measured:
[1] = Military recruits, 12 weeks training, randomised Losartan or placebo; format: in vivo, human; details: after 12 weeks training
Excerpt: Ninety military recruits were studied before and after military training of 12 weeks duration. These were randomised to receive the AT1-receptor antagonist Losartan or placebo.

[2] = Cachectic CHF patients treated with Losartan: clinical status, body composition, strength, treadmill; format: in vivo, human
Procedure: Patient 1 had cachexia due to chronic heart failure (CHF) (person, weight 50.0 kg, height 178 cm, previous weight loss 15.3 kg in 3 years=chronic weight loss). Patient 2 had CHF and a muscle myopathy suffering from idiopathic cachexia (person, weight 62 kg, height 180 cm, previous weight loss 11 kg in year=recent weight loss). Each was treated with Losartan (50 mg once daily). Clinical status and parameters of body composition, strength and treadmill exercise capacity were studies, at baseline and during follow-up. Both patients had evidence of CHF with impaired exercise capacity and impaired left ventricular function (LVEF<40%).
Bioelectrical impedance analysis (patient 1 and 2) was performed in the erect position using a body fat analyser (TANITA TBF-305, Tanita Corporation, Illinois, USA). Lean and fat mass were automatically analysed based on equations supplied and programmed into the machine by the manufacturer. These equations are based upon a comparison with measurements in a health population.
Dual energy X-ray absorptiometry (DEXA) (patient 1): Whole body DEXA-scans were performed using a Lunar model DPXIQ total body scanner (Lunar Radiation Company, Madison, Wisc., USA, Lunar system software version 4.3c). The subject was at each time point scanned rectilinearly from head to toe. A scan takes less than 20 min. The mean radiation dose per scan is reported to be about 0.75 μSv (53), about 1/50th of a normal chest X-ray. The DEXA method can be used to obtain from body density analyses values of fat tissue mass, lean tissue mass. The technical details of DEXA, performance and segment demarcation have been described (54,55). The error of lean tissue measurements is […] and of fat tissue measurements <5% (56).
Treadmill exercise test (Patients 1 and 2): The patients underwent symptom limited treadmill exercise testing. A standard Bruce protocol with the addition of a “stage 0” consisting of 3 min at a speed of 1 mile per hour with a 5% gradient was used. The patients breathed through a one-way valve connected to a respiratory mass spectrometer (Amis 2000, Odense, Denmark) and minute ventilation, oxygen consumption and carbon dioxide production were calculated on line every 10 seconds using a standard inert gas dilution technique. Patients were encouraged to exercise to exhaustion. Exercise time and oxygen consumption at peak exercise adjusted for total body weight (peak V02 in ml/kg/min) were measured as an index of the exercise capacity.
Assessment of quadriceps muscle strength (Patients 1 and 2): The subjects were seated in a rigid frame, with the legs hanging freely. An inelastic strap attached the ankle to a pressure transducer. The recording (Multitrace 2, §, Jersey, Channel Islands) from the pressure transducer was used to assess strength and to provide visual feedback to the subject. […] The best of three voluntary contractions on each leg, with a rest period of at least one minute in-between, was taken to represent the maximal voluntary quadriceps muscle strength of the right and left leg, respectively.

[3] = human skeletal muscle; cited from earlier work
renin gene expression = details: captopril administration; cited from earlier work
[4] = Re-analysis of SOLVD treatment trial: cardiac cachexia and survival; format: in vivo, human
Excerpt: The SOLVD treatment study (57) was a randomized, double-blind, and placebo-controlled trial investigating the effects of enaiapril treatment in clinically stable patients with a LVEF of 35% or less and evidence of overt congestive heart failure. The precis e details of study organisation, inclusion criteria, run-in period (2 to 7 days) and stabilization period (14 to 17 days), randomisation, treatment titration and follow-up have been reported previously (57). Based also on data not otherwise available, the results have been re-analysed, restricted to subjects who participated in the SOLVD treatment trial, who had been free of edema at baseline, who had survived for at least 4 months thereafter, who had weight measurements at baseline and from at least one follow-up visit at 4 months or later.
Of the 2082 patients, 1055 patients were randomised to treatment with enalapril (2.5 to 20 mg per pay) and 1027 patients to treatment with placebo. Body weight at baseline and during follow-up were measured per protocol. Body height was not recorded.
Comparison of means between groups was carried out using an unpaired t-test. Comparison of proportions between groups was made by employing the chi-square test. […] To address the question of whether or not ACE inhibitors influence the risk of first occunence of cachexia, the cumulative incidence of cachexia in the two treatment groups was plotted, and analysed employing the log-rank statistic (59). In the analysis of first occunence of cardiac cachexia, at any given follow-up visit, absence of information on cardiac cachexia (i.e. weight not documented at this visit) is treated as censored. The effect of cardiac cachexia on survival is assessed using Cox proportional hazard analysis (58). For these analyses, cardiac cachexia is treated as a time-dependent covariate. The assessment of cardiac cachexia at 4, 8, and 12 months was used in the analysis. These are the time points in the follow-up period with relatively high proportion of complete information on cachexia status.
The primary analysis was intention-to-treat. Statistical significance is claimed at a computed p-value <0.05 (two-sided testing). Estimates of effects are provided along with their 95% confidence intervals. Results are adjusted for a priori identified prognostic factors such as age, gender, NYHA functional class, LVEF (up to or more than 25%), and treatment status (enalapril vs placebo, in the case of assessing the effect of cardiac cachexia on survival).

rat cardiomyocytes [5] = assay: Mitochondrial membrane potential (ΔΨm) by Rh123 flow cytometry; format: cell-based; details: 1 μM, pre-treatment for 36 hours
Excerpt: (§1) It is based on observation of the potential difference (ΔΨm) across the inner mitochondrial membrane that is generated by the extrusion of protons to the outside of the mitochondrion during the transport of electrons from electron-carrying coenzymes to molecular oxygen. Part of the energy stored in ΔΨm is utilised to support the synthesis of most of the ATP derived from aerobic metabolism. Thus, ΔΨm is an indicator of the energisation state of the mitochondrion, and also of the efficiency of oxygen utilisation to generate chemical energy. To investigate whether some of the therapeutic properties of ACE inhibitors could be accounted for by an increase in ΔΨm, this parameter was examined in rat cardiomyocytes, following pre-treatment with the ACE inhibitor lisinopril.
More particularly, cardiomyocytes were isolated from new-born Sprague-Dawley rats hearts and maintained in 30 mm tissue culture dishes in the presence of DMEM supplemented with 1% foetal calf serum at 37° C. in a humidified 5% CO2 atmosphere. […]
To measure ΔΨm, the mitochondrial-specific probes rhodamine 123 (Rh123) and 5,5′,6,6′-tetrachloro-1,1′,3,3′-tetraethylbenzimidazolocarbocyanine iodide (JC-1) were used. […] Data were acquired and analysed using Lysis II software (Becton Dickinson).

rat cardiomyocytes [6] = assay: Mitochondrial membrane potential (ΔΨm) by JC-1 flow cytometry; format: cell-based; details: 1 μM
Excerpt: as §1
More particularly, cardiomyocytes were isolated from new-born Sprague-Dawley rats hearts and maintained in 30 mm tissue culture dishes in the presence of DMEM supplemented with 1% foetal calf serum at 37° C. in a humidified 5% CO2 atmosphere. For experiments, cultures were treated with 1 μM lisinopril or with an equivalent amount of vehicle for various lengths of time, before analysis of ΔΨm.
To measure ΔΨm, the mitochondrial-specific probes rhodamine 123 (Rh123) and 5,5′,6,6′-tetrachloro-1,1′,3,3′-tetraethylbenzimidazolocarbocyanine iodide (JC-1) were used. Cells were incubated for 15 min with 2.5 μM Rh123 or for 10 min with […] JC-1 (Molecular Probes) in fresh culture medium, at 37° C. and 5% CO2. […] Data were acquired and analysed using Lysis II software (Becton Dickinson).
JC-1 is a more reliable and sensitive fluorescent probe for assessing changes in ΔΨm. At low concentrations, JC-1 exists mainly in a monomeric form which is characterised by the emission of green fluorescence. […] These aggregates are characterized by the emission of red fluorescence. Thus, an increase in the red to green fluorescence ratio indicates an increase in ΔΨm. […] Thus, the ratio of red to green fluorescence (□) increased as the time of incubation with lisinopril progressed.

[7] = low dose, humans; cited from earlier work
[8] = 5 μg/kg/day, rats; cited from earlier work
[9] = 2.5 mg; cited from earlier work
[10] = rat hind limb; cited from earlier work
[11] = 50 mg once daily, both patients

**Q.** Which results are given for `CCCCc1nc(Cl)c(CO)n1Cc1ccc(-c2ccccc2-c2nn[nH]n2)cc1` [Losartan]?
**A.** gain in VO2 max at anaerobic threshold ([1]; DD genotype): -1.8 ± 6.3 mL/min; gain in VO2 max at anaerobic threshold ([1]; II genotype): 0.3 ± 6.3 mL/min; exercise capacity (exercise time, peak VO2) [2, 11]: improved; side-effects of treatment [2, 11]: No side-effects of treatment were observed; quadriceps muscle strength ([2]; 50 mg once daily, both patients, both legs): improved; improvement in NYHA symptom class ([2]; 50 mg once daily, both patients, follow-up 126 and 83 days): 1 NYHA symptom class; weight gain ([2]; patient 1, 50 mg once daily, 126 days, lean and fat tissue gain): 4.6 kg; weight course ([2]; patient 2, 50 mg once daily, 83 days): stopping the process of weight loss; insulin sensitivity [3]: improves insulin sensitivity

**Q.** Which “increase in liver renin gene expression” value (renin gene expression) does the source give for `C[C@H](CS)C(=O)N1CCC[C@H]1C(=O)O` [captopril] here?
**A.** Its value is 3 fold.

**Q.** For `CCOC(=O)[C@H](CCc1ccccc1)N[C@@H](C)C(=O)N1CCC[C@H]1C(=O)O` [enalapril], which “risk of developing cardiac cachexia, RR (crude effect of treatment allocation)” value ([4]; 2.5 to 20 mg per day vs placebo, CHF patients) is on record?
**A.** The value was 0.81.

**Q.** What about the “patients with weight loss of at least 7.5% with subsequently recorded weights equal to or higher than baseline” value ([4]; enalapril group) of the same compound?
**A.** Its value is 6 patients.

**Q.** What about the effect on survival ([4]; independent of age, gender, NYHA class, LVEF, p<0.01) of the same compound?
**A.** Its effect on survival is “significantly beneficial effect on survival; also recorded: reduced the frequency of the risk of death”.

**Q.** And the “reduction of the risk of developing cardiac cachexia” value ([4]; overall)?
**A.** The value was 19%.

**Q.** What does the source list for `NCCCC[C@H](N[C@@H](CCc1ccccc1)C(=O)O)C(=O)N1CCC[C@H]1C(=O)O` [lisinopril]?
**A.** increase in Rh123 fluorescence (rat cardiomyocytes [5]): about 30%; green fluorescence (JC-1 monomer) (rat cardiomyocytes [6]; various lengths of time): corresponding decrease; red fluorescence (JC-1 aggregates) (rat cardiomyocytes [6]; various lengths of time): progressive increase; ratio of red to green fluorescence (rat cardiomyocytes [6]; with time of incubation): increased

**Q.** Which “effect on systemic blood pressure” value [7] does the source give for `CCOC(=O)[C@H](CCc1ccccc1)N[C@@H](C)C(=O)N1[C@H](C(=O)O)C[C@@H]2CCC[C@@H]21` [ramipril] here?
**A.** The value was “without any recordable effect on systemic blood pressure”.

**Q.** What about the “effect on systolic blood pressure” value [8] of the same compound?
**A.** The value was “no effect on systolic blood pressure”.

**Q.** What about the “frequency of first-dose fall in blood pressure” value [9] of the same compound?
**A.** Its value is “same frequency as is seen with placebo”.

**Q.** Which “O2 usage and twitch tension” value [10] does the source give for “angiotensin II (DRVYIHPF; Angiotensin-2; UniProt P01019 25-32, looked up) [ATII]” here?
**A.** The value was “increases”.
